From PMC6359675, “Functionalization of the Chalcone Scaffold for the Discovery of Novel Lead Compounds Targeting Fungal Infections” (Molecules, 2019)
Where “and” joins values, the source holds several entries; their conditions need not be identical. Equal entries are not always repeated. Where two headings read alike, the source gives them in different places.

Key:
[1] = Cytotoxicity test on Vero cells (WST8/CCK-8 cell viability); type: cell-based, African green monkey; details: African green monkey, Vero cells (ATCC CCL-81), Vero cells, mean and 95% confidence interval
Procedure: (§1) African green monkey kidney cells (Vero ATCC CCL-81) were cultured in Eagle’s Minimal Essential Medium (MEM) (Sigma-Aldrich), supplemented with 10% fetal bovine serum (FBS) (Carlo Erba Reagents, Milan, Italy), 100 U/mL penicillin, and 100 µg/mL streptomycin at 37 °C with 5% CO2. For experiments, cells were seeded into 96-well plates at 10^4 cells/well, and incubated at 37 °C for 24 h. Following washes with PBS, cell monolayer was incubated with 100 µL of serially 2-fold dilution of the compound in the range 200–6.25 µM. Both untreated cells and cells incubated with medium containing solvent dilutions were included in each experiment as controls.
(§2) The cell viability was assessed by a WST8-based assay according to the manufacturer’s instructions (CCK-8, Cell Counting Kit-8, Dojindo Molecular Technologies, Rockville, MD, USA). After 72 h of incubation, culture medium was removed from each well, the monolayer was washed with PBS, and 100 µL of fresh medium containing 10 µL of CCK-8 solution were added. Following a 2 h at 37 °C, the absorbance was measured at 450/630 nm; data were calculated as the percentage of the cell viability relative to the untreated controls.

Vero cells (ATCC CCL-81) = assay: as above; type: cell-based, African green monkey; details: 72 h, up to the highest concentration of 200 μM
Procedure: as §1, §2

C. albicans ATCC 10231 = assay: In vitro susceptibility testing, microdilution broth (EUCAST), C. albicans control strain; type: cell-based, Candida albicans; details: for IC50 / inhibition at 100 µM: Candida albicans; for inhibition at 100 µM: ATCC10231, 24 h; for antifungal activity against C. albicans growth, in words: screen at 100 μM
Procedure: (§3) The in vitro antifungal activity of the chalcones was evaluated by a microdilution broth method in accordance with the guidelines provided by the EUCAST Edef 7.3 [22]. Briefly, all strains were cultured on Sabauraud dextrose, then inocula, prepared at 0.5 McFarland, were diluted 1:20 in RPMI-1640 medium (Gibco®, ThermoFisher Scientific Inc., Waltham, MA, USA), containing glucose 2%, 0.3% levo-glutamine buffered to pH 7.0 with 0.165 M 3-(N-morpholino)propanesulfonic acid (MOPS) to yield 1-5 × 10^5 cells/mL. A total of 100 µL of the yeast suspension was inoculated in a 96-well microplate and incubated with 100 µL of serially 2-fold dilution of the compound in the range 200–6.25 µM. The following controls were included: yeast suspensions incubated in RPMI-1640 culture medium (positive growth control), or supplemented with dilutions of DMSO, or fluconazole (Sigma-Aldrich, St. Louis, MO, USA) as a commercial drug. To check the background turbidity of reagents and the sterility of the procedure, dilutions of each compound were incubated in RPMI-1640 culture medium, without yeast inoculum. The inoculated plate was incubated at 37 °C for 24 h, and subsequently the optical density at 630 nm was measured by the Multiskan Ascent microplate reader (Thermo Fisher Scientific Inc.). The effectiveness of the compounds was expressed as percent inhibition relative to the positive growth control when the inhibition […] the 50% at 100 µM. The IC50 value was determined by interpolation of the dose–response curves generated by plotting the percentages of growth inhibition, relative to the drug-free control (set to 100% of growth), as a function of the tested concentrations (on a logarithm scale). Statistical analysis was carried out by the nonlinear regression method using GraphPad Prism version 5.0 for Windows (GraphPad Software, San Diego, CA, USA). All assays were performed in triplicate and at least two independent experiments were carried out.

C. tropicalis = assay: In vitro susceptibility testing, C. tropicalis clinical isolate; type: cell-based; details: Candida tropicalis
Text: (§4) The yeasts included in the present study were Candida albicans ATCC 10231 (American Type Culture Collection) and a collection of yeasts recovered from a variety of clinical specimens, i.e., blood, urine, genital swabs, bronchoalveolar lavage, nail specimens, collected at the Microbiology Unit, St. Orsola Malpighi University Hospital, Bologna, Italy. The clinical strain isolates were identified by standard procedures, including colony morphology on chromogenic agar (CHROMagar Candida medium, Becton Dickinson, Heidelberg, Germany) and confirmed by MALDI Biotyper System using matrix-assisted laser desorption ionization–time of flight mass spectrometry (MALDI-TOF MS, Bruker Daltonik, GmbH, Germany).
as §3

C. albicans = assay: In vitro susceptibility testing, C. albicans clinical isolate; type: cell-based; details: Candida albicans
Text: as §4, §3

S. clavata = assay: In vitro susceptibility testing, S. clavata clinical isolate; type: cell-based
Text: as §4, §3

R. mucilaginosa = assay: In vitro susceptibility testing, R. mucilaginosa clinical isolate; type: cell-based
Text: as §4, §3

C. glabrata = assay: In vitro susceptibility testing, C. glabrata clinical isolate; type: cell-based; details: Nakaseomyces glabratus
Text: as §4, §3

C. lusitaniae = assay: In vitro susceptibility testing, C. lusitaniae clinical isolate; type: cell-based; details: Clavispora lusitaniae
Text: as §4, §3

C. neoformans = assay: In vitro susceptibility testing, C. neoformans clinical isolate; type: cell-based; details: Cryptococcus neoformans
Text: as §4, §3

C. parapsilosis = assay: In vitro susceptibility testing, C. parapsilosis clinical isolate; type: cell-based; details: Lodderomyces parapsilosis
Text: as §4, §3

C. utilis = assay: In vitro susceptibility testing, C. utilis clinical isolate; type: cell-based; details: Williopsis jadinii
Text: as §4, §3

C. krusei = assay: In vitro susceptibility testing, C. krusei clinical isolate; type: cell-based; details: Pichia kudriavzevii
Text: as §4, §3

[2] = ATCC10231, C. albicans ATCC 10231, mean and 95% confidence interval, read-out: IC50
[3] = ATCC10231, C. albicans ATCC 10231, mean and 95% confidence interval, read-out: IC50 [μg/mL]
[4] = clinical isolate, read-out: IC50 C. tropicalis
[5] = clinical isolate, mean and 95% confidence interval, read-out: IC50 C. albicans
[6] = clinical isolate, read-out: IC50 S. clavata
[7] = clinical isolate, read-out: IC50 R. mucilaginosa
[8] = clinical isolate, read-out: IC50 C. glabrata
[9] = clinical isolate, read-out: IC50 C. lusitaniae
[10] = clinical isolate, read-out: IC50 C. neoformans
[11] = clinical isolate, read-out: IC50 C. parapsilosis
[12] = clinical isolate, read-out: IC50 C. utilis
[13] = clinical isolate, read-out: IC50 C. krusei

SMILES | CC50 at 72 h ([1]; read-out: CC50) | CC50 at 72 h ([1]; read-out: CC50 [μg/mL]) | toxicity on Vero cells, in words (Vero cells (ATCC CCL-81)) | IC50 (C. albicans ATCC 10231; [2]) | IC50 (C. albicans ATCC 10231; [3]) | inhibition at 100 µM (C. albicans ATCC 10231; C. albicans ATCC 10231) | IC50 (C. tropicalis; [4]) | IC50 (C. albicans; [5]) | IC50 (S. clavata; [6]) | IC50 (R. mucilaginosa; [7]) | IC50 (C. glabrata; [8]) | IC50 (C. lusitaniae; [9]) | IC50 (C. neoformans; [10]) | IC50 (C. parapsilosis; [11]) | IC50 (C. utilis; [12]) | IC50 (C. krusei; [13]) | antifungal activity against C. albicans growth, in words (C. albicans ATCC 10231; C. albicans ATCC 10231) | melting point | further results
CC(C)=CCOc1ccc(C(=O)/C=C/c2cccnc2)c(O)c1 [Compound 20] | 54.3 µM | 15.9 µg/mL | moderately toxic | 16.8 µM | 4.9 µg/mL | 81.5 ± 4.7% |  |  |  |  |  |  |  |  |  |  |  |  | 
COc1cc(OCCN2CCN(c3ccccc3)CC2)ccc1C(=O)/C=C/c1ccc(F)cc1 [Compound 28, (E)-3-(4-Fluorophenyl)-1-(2-methoxy-4-(2-(4-phenylpiperazin-1-yl)ethoxy)phenyl)prop-2-en-1-one] | > 200 µM | > 99.2 µg/mL | did not display any toxicity | 55.9 µM | 27.7 µg/mL | 99.1 ± 0.7% | 26.6 µM and 13.2 µg/mL | 48.1 µM and 23.9 µg/mL | 27.9 µM and 13.8 µg/mL | 48.5 µM and 21.4 µg/mL | 37.1 µM and 18.4 µg/mL | 26.5 µM and 13.1 µg/mL | 17.7 µM and 8.8 µg/mL | 36.8 µM and 18.3 µg/mL | 29.6 µM and 14.7 µg/mL | 63.5 µM and 31.5 µg/mL |  |  | IC50 (C. tropicalis; Table S1, best-fit, C. tropicalis, read-out: IC50): 26.6 µM; IC50 (C. albicans; Table S1, best-fit, C. albicans clinical isolate, read-out: IC50): 48.1 µM; IC50 (S. clavata; Table S2, best-fit, S. clavata, read-out: IC50): 28 µM; IC50 (R. mucilaginosa; Table S2, best-fit, R. mucilaginosa, read-out: IC50): 46.2 µM; IC50 (C. glabrata; Table S1, best-fit, C. glabrata, read-out: IC50): 35.9 µM; IC50 (C. lusitaniae; Table S1, best-fit, C. lusitaniae, read-out: IC50): 26.5 µM; IC50 (C. neoformans; Table S2, best-fit, C. neoformans, read-out: IC50): 17.7 µM; IC50 (C. parapsilosis; Table S1, best-fit, C. parapsilosis, read-out: IC50): 31.3 µM; IC50 (C. albicans ATCC 10231; ATCC10231, Table S1, variable slope best-fit, C. albicans ATCC 10231, read-out: IC50): 55.6 µM; IC50 (C. utilis; Table S1, best-fit, C. utilis, read-out: IC50): 29.6 µM; IC50 (C. krusei; Table S1, best-fit, C. krusei, read-out: IC50): 63.6 µM
O=C(/C=C/c1ccccc1)c1cc(Cl)ccc1O [Compound 1, (E)-1-(5-Chloro-2-hydroxyphenyl)-3-phenylprop-2-en-1-one] | 174 µM | 45 µg/mL |  | 52.8 µM | 13.7 µg/mL | 65.2 ± 3.9% | 200 µM and 51.7 µg/mL | 62.9 µM and 16.3 µg/mL | 200 µM and 51.7 µg/mL | 83.7 µM and 21.7 µg/mL | 200 µM and 51.7 µg/mL | 100 µM and 25.9 µg/mL | 26.4 µM and 6.8 µg/mL | 200 µM and 51.7 µg/mL | 84.5 µM and 21.9 µg/mL | 200 µM and 51.7 µg/mL |  |  | 
OC(Cn1cncn1)(Cn1cncn1)c1ccc(F)cc1F [FLC, fluconazole, reference compound] |  |  |  | 0.25 µM | 0.07 µg/mL |  | 0.4 µM | 420 nM and 0.13 µg/mL | 40 nM and 0.012 µg/mL | 1.6 mM and 491 µg/mL | 14.4 µM and 4.4 µg/mL | 50 nM and 0.015 µg/mL | 256 µM and 78.4 µg/mL | 37 nM and 0.01 µg/mL | 1.56 µM and 0.5 µg/mL | 64.6 µM and 19.8 µg/mL |  |  | 
O=C(/C=C/c1cccc(F)c1)c1cc(Cl)ccc1O [Compound 3, (E)-1-(5-Chloro-2-hydroxyphenyl)-3-(3-fluorophenyl)prop-2-en-1-one] | 152 µM | 42 µg/mL |  | 57.7 µM | 16 µg/mL | 64.8 ± 1.5% | > 200 µM and > 55.3 µg/mL | 100 µM and 27.7 µg/mL | 37.2 µM and 10.3 µg/mL | > 200 µM and > 55.3 µg/mL | > 200 µM and > 55.3 µg/mL | 38.5 µM and 10.7 µg/mL | 35.2 µM and 9.7 µg/mL | 41.5 µM and 11.5 µg/mL | 100 µM and 27.7 µg/mL | > 200 µM and > 55.3 µg/mL |  |  | 
C#CCOc1ccc(C(=O)/C=C/c2ccc([N+](=O)[O-])cc2)c(OC)c1 [Compound 14] | > 200 µM | > 58.6 µg/mL | did not display any toxicity | 39.2 µM | 11.5 µg/mL | 63.6 ± 6.8% | 200 µM and 67.5 µg/mL | 31.4 µM and 10.6 µg/mL | 100 µM and 33.7 µg/mL | 100 µM and 33.7 µg/mL | 200 µM and 67.5 µg/mL | 48.8 µM and 14.8 µg/mL | 28.4 µM and 9.6 µg/mL | 100 µM and 33.7 µg/mL | 33.7 µM and 11.4 µg/mL | 200 µM and 67.5 µg/mL |  |  | 
C#CCOc1ccc(C(=O)/C=C/c2ccc([N+](=O)[O-])cc2)cc1 [Compound 38, (E)-3-(4-nitrophenyl)-1-(4-(prop-2-yn-1-yloxy)phenyl)prop-2-en-1-one] |  |  |  |  |  | 46.3 ± 3.7% |  |  |  |  |  |  |  |  |  |  | inactive | 103 to 105 °C | 
CC(C)=CCOc1ccc(C(=O)/C=C/c2ccc(Cl)cc2Cl)c(O)c1 [Compound 19, (E)-3-(2,4-dichlorophenyl)-1-(2-hydroxy-4-((3-methylbut-2-en-1-yl)oxy)phenyl)prop-2-en-1-one] |  |  |  |  |  | 5.9 ± 5.7% |  |  |  |  |  |  |  |  |  |  | inactive | 191 to 193 °C | 
C#CCOc1ccc(C(=O)/C=C/c2ccc(Cl)cc2Cl)c(OCC#C)c1 [Compound 23, (E)-1-(2,4-bis(prop-2-yn-1-yloxy)phenyl)-3-(2,4-dichlorophenyl)prop-2-en-1-one] |  |  |  |  |  | 4.6 ± 13.8% |  |  |  |  |  |  |  |  |  |  | inactive | 166 to 168 °C | 
C#CCOc1ccc(C(=O)/C=C/c2cccnc2)cc1 [Compound 36, (E)-1-(4-(prop-2-yn-1-yloxy)phenyl)-3-(pyridin-3-yl)prop-2-en-1-one] |  |  |  |  |  | < 1% |  |  |  |  |  |  |  |  |  |  | devoid of any effect | 96 to 98 °C | 
